This is an account of results in PubChem BioAssay AID651563 (Sanford-Burnham Center for Chemical Genomics, 2012).

Structures are written as SMILES. Where “and” joins values, the source holds several entries; their conditions need not be identical. Equal values may be shown once. Calls of active or inactive are those of the source.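 Rule for the calls: active = compounds whose IC50 is 20 micromolar or lower, counted as confirmed SKN-1 reporter blockers; inactive = the rest.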 Bounds are passed on as bounds.

This assay concerns C. elegans VP596 Pgst-4::GFP/RFP ratio, acrylamide, 24 h. In words: inhibition of acrylamide-induced Pgst-4::GFP reporter, dose response, SKN-1 inhibitor project, whole organism, GFP/RFP fluorescence ratio, set 2, strain VP596 (AID 651563).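 Note: red signal is driven by the dop-3 promoter and serves as the normalizer.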
For the compound `O=C(Nc1ccc(Cl)cn1)c1ccccc1F`, the IC50 – broadly, the point on the concentration scale where inhibition reaches its midpoint – is 20.6 µM (inactive). For the compound `Clc1ccc(C=Cc2ccccn2)cc1`, the IC50 is 10.4 µM. In the case of `Brc1ccc2oc(-c3ccn[nH]3)cc2c1`, the concentration for half-maximal inhibition (IC50) is 10.3 µM. Then `FCCCOc1ccc(-c2nccc(-c3ccccn3)n2)cc1`, with 25.6 µM (inactive); and `Clc1ccc(C#Cc2cccnc2)cc1`, with 19.5 µM. Regarding `O=[N+]([O-])c1ccc(NCc2ccc(Cl)cc2)nc1`, the IC50 was 18.1 µM. Then `CCCCCCCCNc1ncnc2ccccc12`, with > 100 µM (inactive); and `CCOc1cc(CNC2CCCC2)cc(Cl)c1OCc1ccccc1`, with 22.4 µM (inactive).

In the case of `Clc1ccc2nc(-c3ccc(Br)s3)cn2c1`, the IC50 is 21.6 µM (inactive). Then `c1ccc(SCc2cc(-c3ccccc3)no2)cc1`, with 12.8 µM; and `CCN(CC)c1ccc(/C=C2/C(=O)c3ccc(C(=O)O)cc3C2=O)cc1`, with 11.9 µM.

As for `CC1=NN(c2ccccc2)C(=O)/C1=C\C=C1/N(C)c2ccccc2C1(C)C`, the 50% inhibitory concentration (IC50) was 14.4 µM.

As to `O=C(Nc1ccc(Cl)c(C(F)(F)F)c1)c1ccco1`, the IC50 is 64.4 µM (inactive). Then `Clc1ccc(OCc2nc(-c3ccncc3)no2)c(Br)c1`, with 31.2 µM (inactive). Then `O=C(Nc1ccc(OC(F)F)c(Cl)c1)c1cccc(OC(F)F)c1`, with > 100 µM (inactive); and `CCCCOc1ccc(C(=O)OC2CC(C)N(C)CC2C)cc1` (stereo not given), with 29.2 µM (inactive).

For `c1ccc(Nc2nc(-c3cccs3)cs2)nc1`, the IC50 was 21.7 µM (inactive).

As for `COC(=O)c1cccc(CC2(C)C(=O)Nc3ccc(OC(F)(F)F)cc32)c1` (stereo not given), the IC50 is > 100 µM (inactive).

With `c1ccc(-c2cnc(-c3ccccc3)nn2)cc1`, the IC50 is > 100 µM (inactive).

On to `O=C(/C=C/Nc1ccc(F)cc1F)c1cccs1`, for which the IC50 was 5.04 µM. Then `Fc1ccc(COc2ccc(-c3nnco3)cc2)cc1`, with 7.45 µM; and `Brc1cccc(OCCSc2ncccn2)c1`, with > 100 µM (inactive). In the case of `c1ccc(N2CCN(c3cnc4ccccc4n3)CC2)cc1`, the IC50 is > 100 µM (inactive). Then `Brc1ccc(-c2cn3ccccc3n2)s1`, with 18.1 µM; and `O=C(/C=C/c1ccc(Cl)cc1Cl)Nc1ccc(CN2CCOCC2)cc1`, with > 100 µM (inactive). As to `COc1cc(CNC(C)(C)CO)cc(Br)c1OCc1ccc(Cl)cc1`, the IC50 was 19.7 µM. Take `CCOc1cc(CNCCSc2nnnn2C)cc(Br)c1OCc1ccc(F)cc1`: the concentration for half-maximal inhibition (IC50) is 2.73 µM. Consider `Brc1ccc(-c2nc(-c3ccccn3)no2)o1`, for which the IC50 was 35.8 µM (inactive). Regarding `O=C(/C=C/c1ccccc1)/C=C/c1ccccc1`, the concentration for half-maximal inhibition (IC50) is 16.2 µM.

As for `O=C(Nc1nc(-c2ccc(Cl)s2)cs1)c1ccccc1`, the IC50 was 13.2 µM. Then `O=C(Oc1ccccc1)N1CCN(c2ccc(F)cc2)CC1`, with > 100 µM (inactive); and `CCCn1nc2cc(C(=O)NCc3ccc(OC(F)(F)F)cc3)ccc2c1OCC`, with 25.4 µM (inactive); and `Cc1ccc(N=C/C(C(=O)C(F)(F)F)=C(\O)c2ccco2)cc1Cl`, with 14.3 µM. Then `O=[N+]([O-])c1ccc(Nc2ccccc2)cc1`, with 12.2 µM. Then `O=C(/C=C/Nc1ccc(F)c(Cl)c1)c1ccco1`, with 16.7 µM; and `COc1ccc(C(=O)Nc2nc(-c3cccs3)cs2)cc1`, with 24.6 µM (inactive). As for `Clc1cccc(CSc2ncn(-c3ccccc3)n2)c1`, the IC50 was 37.5 µM (inactive). Then `O=C(Nc1nc2c(ccc3ccccc32)s1)c1ccco1`, with 17.7 µM; and `O=C(Nc1ccc(SC(F)F)cc1)c1ccccc1F`, with 20.3 µM (inactive). Then `COC(=O)c1c(-c2ccccc2)noc1-c1ccccc1`, with 49.3 µM (inactive); and `Clc1ccc(Cn2cc(Br)cn2)cc1Cl`, with 30.6 µM (inactive). Regarding `Cc1ccc(NC(=O)c2ccc(F)cc2F)cc1`, the IC50 is > 100 µM (inactive). Then `Cc1cc(OCc2cccc(Cl)c2)c(C)cc1CN1CCOCC1`, with 15.2 µM; and `Clc1ccc(-c2cc(CSc3ccccc3)on2)cc1`, with > 100 µM (inactive); and `Clc1ccccc1-c1nc(-c2ccncc2)no1`, with 18.4 µM and > 100 µM (inactive). For the compound `COc1c(C(=O)Nc2nccs2)ccc2ccccc12`, the IC50 was 41.8 µM (inactive). As to `O=c1cc(-c2ccc(F)cc2)oc2ccccc12`, the IC50 was 19.2 µM. For `Clc1ccc(-c2nnc(SCc3ccon3)o2)c(Cl)c1`, the IC50 is > 100 µM (inactive). Take `N#Cc1cncc(C#Cc2ccccc2)c1`: the IC50 was 31 µM (inactive). On to `C=CCSc1nnc(-c2ccc(Cl)cc2Cl)o1`, for which the IC50 was 25.2 µM (inactive). Turning to `O=C(Nc1nc(SCc2ccc(F)cc2)ns1)c1ccco1`, the IC50 was > 100 µM (inactive). Then `O=C(Nc1nccs1)c1ccc2ccccc2c1`, with 23.8 µM (inactive); and `Cc1ccccc1-c1noc(-c2cccs2)n1`, with 9.31 µM; and `O=C(c1cccs1)c1ccc(-c2cccs2)s1`, with 9.1 µM. Then `Cc1ccc(C=Cc2ccccn2)cc1`, with > 100 µM (inactive); and `Cc1ccc(-c2nc(-c3ccncc3)no2)c(C)c1`, with > 100 µM (inactive); and `C=CCSc1ncc(-c2ccccc2)cn1`, with 27.2 µM (inactive).

On to `O=C(/C=C/c1ccc(Cl)cc1)Nc1ccc(CN2CCOCC2)cc1`, for which the IC50 is 23.3 µM (inactive). For the compound `CC(C)c1ccc(-c2nc3ccccc3s2)cc1`, the IC50 is > 100 µM (inactive). As for `CC(C)(C)N=C1NN=C(c2ccc(Cl)cc2)CS1`, the IC50 was 25.9 µM (inactive).

Take `CCCCCNC(=O)c1ccccc1SC`: the IC50 was 81.5 µM (inactive). For `C(=C\c1nc(-c2ccncc2)no1)/c1ccccc1`, the IC50 was 19.1 µM. For `c1ccc(-c2csc(Nc3ccccn3)n2)cc1`, the IC50 is 16.8 µM. With `Brc1ccc(CSc2nnc(-c3cccnc3)o2)cc1`, the IC50 is 29.1 µM (inactive). For the compound `O=[N+]([O-])c1ccc(Nc2ccccc2)c2nonc12`, the IC50 was 49.6 µM (inactive). For the compound `O=C(Nc1ccc(OC(F)F)c(Cl)c1)c1ccccn1`, the IC50 was 5.09 µM. `O=C(Nc1nc(-c2ccc(Cl)s2)cs1)c1cccs1`: the IC50 was 6.63 µM.

In the case of `Clc1ccc(Cn2nnc(-c3ccccc3)n2)cc1`, the IC50 is 20.9 µM (inactive).

For `Fc1ccc(-n2nnc(-c3cccnc3)n2)cc1`, the IC50 is 24.8 µM (inactive). Then `O=C(Sc1ccc(Cl)cc1)c1ccccn1`, with > 100 µM (inactive); and `O=C(Nc1ccc(CN2CCOCC2)cc1)c1cc2ccccc2o1`, with 17.5 µM.

For the compound `c1ccc(-c2ccc(-n3ccnc3)cc2)cc1`, the IC50 was 10.6 µM. Then `O=C1NC2C(=CC(O)C(O)C2O)c2cc3c(cc21)OCO3` (stereo not given), with > 100 µM (inactive); and `c1ccc(-c2nc(-c3ccncc3)no2)cc1`, with 24.7 µM (inactive); and `CC1(C)c2ccccc2C(=O)c2ccccc21`, with > 100 µM (inactive). As to `c1csc(-c2nc(-c3ccncc3)no2)c1`, the IC50 was 36.1 µM (inactive). Then `Cc1ccc(-c2noc(-c3cccs3)n2)cc1`, with 12.4 µM.

As for `O=C(CC(O)(C(F)(F)F)C(F)(F)F)Nc1ccc(Cl)c(Cl)c1`, the IC50 is 27.9 µM (inactive). Turning to `O=[N+]([O-])c1ccc(COc2ccc(CN3CCCCC3)cc2)cc1`, the IC50 is 8.89 µM.

On to `Clc1ncc(CSc2ccccc2)s1`, for which the IC50 is > 100 µM (inactive). Then `Cc1ccc(Nc2nc(-c3cccs3)cs2)nc1`, with 30.2 µM (inactive). Then `Fc1ccccc1-c1nc(-c2ccncc2)no1`, with 38.6 µM (inactive); and `O=c1c2ccccc2ccc2ccccc12`, with 33.8 µM (inactive). As to `Clc1ccc(C=Cc2ccccn2)c(Cl)c1`, the IC50 is 11.9 µM. Then `Clc1ccccc1-c1nnc(-c2ccccc2Cl)o1`, with 1.79 µM; and `CC(C)c1ccc(C(=O)Nc2ccc(CN3CCOCC3)cc2)cc1`, with 4.79 µM; and `O=[N+]([O-])c1ccc2nc(-c3ccccc3)oc2c1`, with 3.84 µM. Then `O=[N+]([O-])c1ccc(COc2ccc(CN3CCCC3)cc2)cc1`, with 8.62 µM.

Consider `COc1ccc2c(c1)OC/C(=C/c1cccs1)C2=O`, for which the IC50 was 16.8 µM. Then `c1ccc2sc(SCc3ccc(-c4nnco4)cc3)nc2c1`, with 11.9 µM. Then `O=[N+]([O-])c1cccc(-c2c(-c3ccccc3)ncc3cc(F)ccc23)c1`, with > 100 µM (inactive); and `O=[N+]([O-])c1ccc2cn(-c3ccccc3)nc2c1`, with 2.81 µM; and `Clc1ccc(-c2nnc(-c3ccccc3)o2)cn1`, with > 100 µM (inactive).

With `Fc1ccc(-n2nnc(-c3cccnc3Cl)n2)cc1`, the 50% inhibitory concentration (IC50) is 8.82 µM. For the compound `Clc1ccc(N2CCN(c3ccnc(Cl)n3)CC2)cc1`, the IC50 was 17.7 µM. Regarding `O=C(/C=C/Nc1ccccc1F)c1cccs1`, the IC50 was 27.9 µM (inactive). With `O=C(/C(C=Nc1ccc(Br)cc1)=C(/O)c1ccco1)C(F)(F)F`, the IC50 was 21 µM (inactive). With `N=C1C=CC(=C(c2ccc(N)cc2)c2ccc(N)cc2)C=C1`, the IC50 was 20.2 µM (inactive).

Take `O=C(NC(=S)Nc1ccc(CN2CCCCC2)cc1)c1cc2ccccc2o1`: the IC50 is 94.9 µM (inactive).

In the case of `CC1=NOC(=O)/C1=C/c1ccc(-c2ccc(Cl)cc2)o1`, the IC50 was > 100 µM (inactive).

Regarding `Cc1nc2ccccc2cc1OCc1ccc(Cl)cc1`, the IC50 was > 100 µM (inactive).

As for `CCOc1ccc(-c2nc(-c3cccnc3)no2)cc1`, the half-inhibitory concentration (IC50) was 19 µM. Then `c1ccc2oc(SCc3nc4ccccc4s3)nc2c1`, with 27.4 µM (inactive). In the case of `CN(C)C(CNC(=O)CCc1nc2cc(Cl)ccc2n(Cc2ccccc2)c1=O)c1ccccc1` (stereo not given), the IC50 was 26.1 µM (inactive). As for `Cc1c(N2C(=O)/C(=C\c3ccc(N(C)C)cc3)N(C)C2=S)c(=O)n(-c2ccccc2)n1C`, the IC50 is 16.9 µM.
